Here are results for two compounds from patent publication US8466311B2, “Neuroprotective compositions and methods” (Sanford-Burnham Medical Research Institute, priority 2006, dated 2013).

One experiment deals with Nrf2. The experiment can be described thus: Intracellular distribution of Nrf2 protein in COS7 cells (immunofluorescence). The following applies: 10 μM CA. Type of experiment: cell-based. How it is done: Immunocytochemistry. Cultures were fixed with 3% paraformaldehyde at room temperature for 20 min. After three washes in PBS, the cells were permeabilized with 0.3% Triton X-100 for 5 min. After three additional washes in PBS, the cells were incubated at 4° C. overnight with primary antibodies. They were then washed three times in PBS containing 0.2% Tween 20 (PBS-T), and next incubated with secondary antibodies for 1 h at room temperature. Thereafter, the cells were again washed, and their nuclei stained with Hoechst 33,258 (5 μg/ml) or with DAPI (1 μg/ml) for 5 min. Stained preparations were mounted and examined by epifluorescence microscopy. The following primary antibodies were used: anti-Nrf2 antibody, anti-MAP2 and anti-NeuN antibodies to identify neurons (dendrites and nuclei, respectively), and anti-S100β antibody to identify astrocytes. As secondary antibodies, we used FITC-conjugated anti-mouse IgG, rhodamine-conjugated anti-mouse IgG, or rhodamine-conjugated streptavidin.
After binding of the electrophilic quinone-form of CA to Keap1 protein, activation of the Keap1/Nrf2 pathway requires nuclear translocation of Nrf2 (Talalay, Biofactors 12:5-11, 2000; Padmanabham et al., Mol. Cell 21:689-700, 2006; Itoh et al., Free Radic. Biol. Med. 36:1208-1213, 2004). Thus, we next examined the intracellular distribution of Nrf2 protein in COS7 cells by immunofluorescence.

In experiment [1] the test system is phase 2 genes (GCL-L, GCL-H, HO-1, NQO1). The experiment is described as follows: Phase 2 gene induction in PC12h cells (RT-PCR). It is filed as cell-based. The conditions noted are these: 10 μM CA, 6-24 h. As to the method:
RT-PCR. In order to examine phase 2 gene induction by CA in PC12h cells and brain lysates, RT-PCR of total RNA from cortical cultures was performed using the following primer pairs (Hosoya et al., J. Bioi. Chern. 29:27244-27250, 2005; Kobayashi et al., Mol. Cell. Biol. 26:221-229, 2006): CypA (89 bp), 5′-ACAGGTCCTGGCATCTTGTC-3′ (SEQ ID NO: 18)(sense) and 5′-[…] -3′ (SEQ ID NO: 19)(antisense); H0-1 (284 bp), 5′-CAGTCGCCTCCAGAGTTTCC -3′ (SEQ ID NO: 20)(sense) and 5′- TACAAGGAGGCCATCACCAGC-3′ (SEQ ID NO: 21)(antisense); GCL-M (280 bp), 5′- CTGCTAAACTGTTCATTGTAGG-3′ (SEQ ID NO: 22)(sense) and 5′- CTA TTG GGT TIT ACC TGT G-3′ (SEQ ID NO: 23)(antisense); GCL-C (213 bp), 5′- GTC TIC AGG TGA ACA TIC CAA GC-3′ (SEQ ID NO: 24)(sense) and 5′- TGTTCTTCAGGGGCTCCAGTC-3′ (SEQ 10 NO: 25)(antisense); and NQO1 (212 bp), 5′- GTG TAC AGC ATI GGC CAC AC-3′ (SEQ 10 NO: 26)(sense) and 5′AAATGATGGCCCACAGAAAG-3′ (SEQ ID NO: 27)(antisense).
Phase 2 enzymes represent an important effector activated by electrophilic-induction of the Keap1/Nrf2 pathway. In order to detect induction of the phase 2 enzymes γ-GCL light chain (GCL-L), γ-GCL heavy chain (GCL-H), HO-1, and NQO1, we performed RT-PCR using mRNA of PC12h cells pretreated with 10 μM CA. The cyclophilin A (CYPA) gene was used as an internal positive control.

The test system of the next experiment is ARE core element. The experiment is described as follows: ARE core element luciferase reporter (pAREluc) in HT22 cells. It is filed as cell-based. As to the method: Cell cultures, transfection, and glutathione (GSH) measurement. […] Transfection was performed with Lipofectamine 2000 (Invitrogen). In the reporter gene assays, firefly luciferase activity in cell lysates was measured with a luminometer (Promega). Total GSH (reduced and oxidized) was determined as described (Lee et al., Biochem. Biophys. Res. Commun. 280:286-292, 2001).
The E1 and E2 enhancer sites in the H0-1 promoter each contain an ARE. […] Biol. 24:36-45, 2004; Gong et al., Antioxid. Redox Signal. 4:249-257, 2002). Because NEPP compounds have an electrophilic carbon at position #11 and can bind cysteine residues of cellular proteins, we studied this pathway of ARE activation. To provide direct evidence that NEPP11 could activate the H0-1 enhancer through an ARE, we studied transcriptional activation of a wild-type ARE core element (pAREluc) and a mutated form (pGC-AREIuc) (Lee et al., Biochem, Biophys. Res. Commun. 280:286-292, 2001). cDNA constructs represented wild-type
(Kraft et al., J. Neurosci. 24:1101-1112, 2004).
On the technique in general: In a reporter assay the amount or activity of a reporter protein is the signal.

Experiment [2] deals with cAMP-responsive element (CRE). The experiment is described as follows: Enhancer element luciferase reporter p3xCREluc. Type of experiment: cell-based. The conditions noted are these: NEPP11 2 μM. How it is done:
(§1) Because the E1 and E2 regions also contain other enhancer elements, we tested the effects of NEPP11 (2 μM) on the expression of luciferase activity derived from these elements, including the cAMP-responsive element (CRE; p3xCREluc), AP-1 binding site (p3xAP1luc), NF-κB binding site (p3xNF-κBluc), NFAT-binding site (p3xNFATluc), ETS-binding site (p3xETSluc), and MEF2-binding site (p3xMEF2luc).

A further experiment has as its system NF-κB binding site. The experiment can be described thus: Enhancer element luciferase reporter p3xNF-κBluc. It is filed as cell-based. The conditions noted are these: NEPP11 2 μM. As to the method:
as §1

The test system of the next experiment is NFAT-binding site. The experiment is described as follows: Enhancer element luciferase reporter p3xNFATluc. The following applies: NEPP11 2 μM. It is filed as cell-based. How it is done: as §1
Another experiment concerns ETS-binding site. The experiment is described as follows: Enhancer element luciferase reporter p3xETSluc. It is filed as cell-based. The conditions noted are these: NEPP11 2 μM. As to the method:
as §1

In another experiment the test system is HO-1 protein. The experiment is described as follows: HO-1 induction in mouse brain after i.p. injection. Type of experiment: in vivo. The conditions noted are these: NEPP11 i.p. 12 h before killing. How it is done:
To test the hypothesis that NEPP protection against brain ischemia is associated with HO-1 expression, we examined HO-1 induction by Western blotting and immunostaining. NEPP11 or vehicle was injected intraperitoneally (i.p.) 12 h before the animals were killed. Brain lysates (10 μg per lane) were extracted and subjected to Western blotting with anti-HO-1 and anti-β-actin antibody. For immunostaining, coronal sections of mouse brain were stained with anti-MAP-2 and anti-HO-1 antibodies.

With `CC(C)c1cc2c(c(O)c1O)[C@@]1(C(=O)O)CCCC(C)(C)[C@@H]1CC2` [CA, carnosic acid], the “localization of Nrf2 protein” value in the experiment with Nrf2 is on record as “translocated into the nucleus”. The “induction of phase 2 genes” value in experiment [1] is “All of the phase 2 genes were induced”.

With `COC(=O)CCCCC/C=C1/C(=O)C=C[C@H]1CCCCCCc1ccc(C)cc1` [NEPP11], the “mutant ARE (pGC-AREluc) transcriptional activity” value in the experiment with ARE core element was “unaffected”. Also, the “wild-type ARE (pAREluc) transcriptional activity” value in the experiment on ARE core element (dose-dependent) is “up to seven-fold”. For the same compound, the “activity of p3xCREluc” value in experiment [2] is given as “slightly depressed”. Further, the p3xNF-κBluc expression entry in the experiment on NF-κB binding site was “minimally activated”. Moreover, the “activity of p3xNFATluc” value in the experiment with NFAT-binding site is given as “slightly depressed”. Moreover, in the experiment on ETS-binding site, the “activity of p3xETSluc” value was “slightly depressed”. Besides, in the experiment with HO-1 protein, the “level of HO-1 protein in the brain” value is “increased”.
